{
  "source": "patent US8026110B2",
  "about": "“Combinatorial rosamine library and uses thereof” (New York University, priority 2006, dated 2011)",
  "test_system": "DNA",
  "assay": "Screening of rosamine library toward 47 analytes: DNA",
  "type": "binding",
  "conditions": "screen of 47 analytes, duplicated, FIG. 10B",
  "experimental": "The rosamine derivative compounds were screened toward 47 different analytes that include proteins, polysaccharides, nucleic acids, and metal ions. The stock solution of each dye (50 μL) in HEPES (20 mM, pH=7.4) or PBS (20 mM, pH=7.4) was prepared, and diluted with the each analyte (50 μL, 1.0 mg/mL or 200 μM) in the same buffer solution. The final dye concentration varied from 0.5 μM to 10 μM. The fluorescence intensity fold changes of each dye in the presence of analytes were calculated by comparing the fluorescence intensity at the maximum emission wavelength with/without the analyte.",
  "note": "Entries after “also recorded” stand apart in the source; their conditions may differ.",
  "data": [
    {"smiles": "CCN(CCCN(C)C)c1ccc2c(=O)c3ccc(N)cc3oc2c1", "note": "[L, 3-Amino-6-[(3-dimethylamino-propyl)-ethyl-amino]-xanthen-9-one]", "values": [
      {"measurement": "fluorescence response to DNA", "result": "selective response; also recorded: selective increase of fluorescence intensity"}
    ]}
  ]
}
